Experiments:
OR35a = target: T1, OR35a (Drosophila melanogaster, UniProt Q9V3Q2); test: EIS sensor, Or35a liposomes on gold electrode (Example 1); type: binding; conditions: Or35a liposomes, EIS
T1 sequence (Q9V3Q2 1-409): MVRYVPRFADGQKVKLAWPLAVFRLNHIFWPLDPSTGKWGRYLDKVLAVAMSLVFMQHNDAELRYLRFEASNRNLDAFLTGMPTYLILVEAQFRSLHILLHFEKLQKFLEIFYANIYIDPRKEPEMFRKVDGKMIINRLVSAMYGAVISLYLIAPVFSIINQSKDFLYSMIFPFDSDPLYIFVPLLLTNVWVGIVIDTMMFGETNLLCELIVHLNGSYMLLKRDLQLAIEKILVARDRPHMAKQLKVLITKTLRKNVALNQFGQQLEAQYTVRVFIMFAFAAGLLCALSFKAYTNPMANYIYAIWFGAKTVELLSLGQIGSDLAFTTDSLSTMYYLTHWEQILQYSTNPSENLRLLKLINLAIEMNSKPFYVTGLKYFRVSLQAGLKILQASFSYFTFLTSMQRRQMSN
Description: (§1) Liposomes were prepared using a phospholipid solution produced by evaporating solutions containing: phosphatidylethanolamine (PE), phosphatidylserine (PS), phosphatidylcholine (PC), and cholesterol (CH) at a molar ratio of 5:3:3:1 in a small glass tube under a stream of N2 gas, then desiccating under vacuum for 1 h. […] To promote the formation of liposomes, 10 freeze/thaw steps were performed by transferring the tube from liquid nitrogen to a 40° C. water bath. Liposomes were then sized by passing the lipid solution 11 times through a 100-nm polycarbonate membrane using an Avestin LiposoFAST extruder unit (Avestin, Germany). Glycerol was added at 10% of the final volume and aliquots at 10 mg/mL were snap frozen in liquid nitrogen and stored at -80° C. Prior to their use, liposomes were defrosted on ice and then destabilized by incubating with 0.2% CHAPS for 15 min at room temperature. Then 200 μg of purified odorant receptor^14 was added to 1 mg of liposomes and rotated at 10 rpm for 1 h at room temperature. […] The Bio-Beads were removed after each incubation period. The OR integrated liposomes were pelleted by centrifugation at 100,000 g for 1 h, and were resuspended in 500 μL of rehydration buffer. Integration of OrXs into liposomes was assessed by density gradient ultracentrifugation (DGU) using Accudenz (Accurate Chemical & Scientific Corporation, USA). […] The sample was then centrifuged at 100,000 g for 4 h at 4° C. Liposomes will float to the top of the gradient after Accudenz DGU due to their low density. 1.3 Electrode Cleaning Gold disk (2 mm) electrodes were cleaned with polishing with Alumina paste for 2 minutes, ultra-sonicated in pure ethanol and then Milli-Q water for 5 minutes each. […] Charge transfer resistance (Rct) of electrodes were calculated by fitting obtained data to a Randles' equivalent circuit [Rs+CPE/(Rct+W)] comprising of a solution resistance (Rs) in series with a constant phase element (CPE) and in parallel with charge transfer resistance (Rct) and Warburg diffusion element. […]

Or22a = target: T2, Or22a (Drosophila melanogaster, UniProt P81909); test: EIS sensor, Or22a liposomes on gold electrode (Example 1); type: binding; conditions: Or22a liposomes, EIS
T2 sequence (P81909 1-397): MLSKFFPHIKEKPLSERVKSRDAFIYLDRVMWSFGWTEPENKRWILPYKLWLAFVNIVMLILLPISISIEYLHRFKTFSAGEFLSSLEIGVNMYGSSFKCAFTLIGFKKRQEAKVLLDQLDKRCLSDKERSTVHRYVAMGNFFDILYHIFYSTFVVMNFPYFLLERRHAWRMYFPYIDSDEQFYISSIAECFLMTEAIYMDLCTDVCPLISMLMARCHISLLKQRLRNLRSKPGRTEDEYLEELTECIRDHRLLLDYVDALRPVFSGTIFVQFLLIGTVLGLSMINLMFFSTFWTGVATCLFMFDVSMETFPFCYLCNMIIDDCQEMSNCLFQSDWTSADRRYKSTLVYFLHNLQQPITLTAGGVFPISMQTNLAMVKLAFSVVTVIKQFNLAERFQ
Description: as §1

SMILES	EC50 (OR35a) [nM]	Sensitivity limit (lowest detectable concentration) (OR35a; signal/noise >3) [pM]	EC50 (Or22a) [nM]	Sensitivity limit (lowest detectable concentration) (Or22a; signal/noise >3) [pM]
CCC/C=C/C=O [E2-hexenal]	~10	36		
CCCCCC(=O)OC [methyl hexanoate]			~10	280
